Data from US8679746B2, “Compositions and methods for predicting outcome of treatment” (Dako Denmark A/S, priority 2005, dated 2014).

Key:
[1] = cited from earlier work
breast cancer = settings: in vivo; cited from earlier work
[2] = tested on: metastatic head and neck cancer; assay: 5-FU infusion in a patient with metastatic head and neck cancer; format: in vivo; settings: one patient; 1000 mg/m^2 per 24 hours, 120 hours infusion; evaluated after one and a half month
Description: A patient with metastatic head and neck cancer was treated with 5-fluorouracil (5-FU) infusion at a dose of 1000 mg/m^2 per 24 hours. The total infusion time was 120 hours.

CCCCCOC(=O)Nc1nc(=O)n([C@@H]2O[C@H](C)[C@@H](O)[C@H]2O)cc1F [capecitabine]
higher concentrations in tumor tissue compared to plasma ([1]; tumor tissue vs plasma): 21 fold
higher FU concentration in tumor compared to normal tissue ([1]; tumor vs normal tissue): 3.2 fold

COc1cccc2c1C(=O)c1c(O)c3c(c(O)c1C2=O)C[C@@](O)(C(=O)CO)C[C@@H]3O[C@H]1C[C@H](N)[C@@H](O)[C@H](C)O1 [epirubicin]
reduction in overall survival on substitution of methotrexate in CMF with epirubicin (breast cancer): 25%

O=c1[nH]cc(F)c(=O)[nH]1 [5-FU, 5-Fluorouracil]
treatment response [2]: progressive disease
